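1) Cells in 96-well plates. 2) Compound, 48 h, 5 concentrations. 3) Linear interpolation between surrounding doses. 4) Unreached endpoint = highest concentration. Abbreviation: GI50, concentration required for 50% inhibition of growth. TGI denotes the concentration required for complete inhibition of growth.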
What was measured:
Experiment in all cases: inhibition of tumour cell growth, NCI panel, 48 h
SK-MEL-2 melanoma = system: SK-MEL-2 melanoma
T-47D breast = system: T-47D breast
MALME-3M melanoma = system: MALME-3M melanoma
SF-539 CNS = system: SF-539 CNS
SNB-19 CNS = system: SNB-19 CNS
BT-549 breast = system: BT-549 breast
OVCAR-3 ovarian = system: OVCAR-3 ovarian
SF-268 CNS = system: SF-268 CNS
MDA-MB-435 = system: MDA-MB-435
DU-145 prostate = system: DU-145 prostate
SW-620 colon = system: SW-620 colon
OVCAR-8 ovarian = system: OVCAR-8 ovarian
NCI-H23 lung = system: NCI-H23 lung
A549 NSCLC = system: A549 NSCLC
SF-295 CNS = system: SF-295 CNS
HS 578T breast = system: HS 578T breast
HCT-116 colon = system: HCT-116 colon
CAKI-1 renal = system: CAKI-1 renal
HOP-92 NSCLC = system: HOP-92 NSCLC
786-0 renal = system: 786-0 renal
HT29 colon = system: HT29 colon
HL-60(TB) leukemia = system: HL-60(TB) leukemia
HOP-62 NSCLC = system: HOP-62 NSCLC
NCI-H460 lung = system: NCI-H460 lung
SNB-75 CNS = system: SNB-75 CNS
NCI-H522 lung = system: NCI-H522 lung
M14 melanoma = system: M14 melanoma

CN(C)C1CCN(Cc2ccc(NC(=O)c3cncc(C#Cc4cnc(N)c5ncccc45)c3)cc2C(F)(F)F)CC1 gave a GI50 (SK-MEL-2 melanoma) of 8.02 µM, a TGI (SK-MEL-2 melanoma) of 19.8 µM and a GI50 (T-47D breast) of 11.6 µM. It also gave a TGI (T-47D breast) of 43.8 µM, a GI50 (MALME-3M melanoma) of 0.828 µM and a TGI (MALME-3M melanoma) of 1.65 µM. The GI50 (SF-539 CNS) was 2.13 µM, the TGI (SF-539 CNS) was 8.98 µM and the GI50 (SNB-19 CNS) was 10 µM. The TGI (SNB-19 CNS) was 21.2 µM, the GI50 (BT-549 breast) was 7.77 µM and the TGI (BT-549 breast) was 15.3 µM. The GI50 (OVCAR-3 ovarian) was 9.3 µM, the TGI (OVCAR-3 ovarian) was 17.6 µM and the GI50 (SF-268 CNS) was 1.68 µM. The TGI (SF-268 CNS) was 4.72 µM, the GI50 (MDA-MB-435) was 0.922 µM and the TGI (MDA-MB-435) was 1.83 µM. For the same compound, the GI50 (DU-145 prostate) was 0.904 µM, the TGI (DU-145 prostate) was 1.72 µM and the GI50 (SW-620 colon) was 1.32 µM. It also gave a TGI (SW-620 colon) of 4.03 µM, a GI50 (OVCAR-8 ovarian) of 9.11 µM and a TGI (OVCAR-8 ovarian) of 29 µM. It also gave a GI50 (NCI-H23 lung) of 7.9 µM, a TGI (NCI-H23 lung) of 19.9 µM and a GI50 (A549 NSCLC) of 8.25 µM. For the same compound, the TGI (A549 NSCLC) was 19.2 µM, the GI50 (SF-295 CNS) was 8.88 µM and the TGI (SF-295 CNS) was 17.3 µM. The GI50 (HS 578T breast) was 3.84 µM, the TGI (HS 578T breast) was 14.8 µM and the GI50 (HCT-116 colon) was 8.28 µM. It also gave a TGI (HCT-116 colon) of 18 µM, a GI50 (CAKI-1 renal) of 8.44 µM and a TGI (CAKI-1 renal) of 15.6 µM. The GI50 (HOP-92 NSCLC) was 2.77 µM, the TGI (HOP-92 NSCLC) was 11.3 µM and the GI50 (786-0 renal) was 1.01 µM. It also gave a TGI (786-0 renal) of 1.93 µM, a GI50 (HT29 colon) of 1.3 µM and a TGI (HT29 colon) of 6.82 µM. It also gave a GI50 (HL-60(TB) leukemia) of 9.8 µM, a TGI (HL-60(TB) leukemia) of 24.4 µM and a GI50 (HOP-62 NSCLC) of 9.34 µM. For the same compound, the TGI (HOP-62 NSCLC) was 26.4 µM, the GI50 (NCI-H460 lung) was 1.12 µM and the TGI (NCI-H460 lung) was 2.5 µM. For the same compound, the GI50 (SNB-75 CNS) was 5.39 µM, the TGI (SNB-75 CNS) was 11.5 µM and the GI50 (NCI-H522 lung) was 9.86 µM. It also gave a TGI (NCI-H522 lung) of 26.5 µM, a GI50 (M14 melanoma) of 0.962 µM and a TGI (M14 melanoma) of 1.87 µM.
